Data published in US11090247B2, “Compositions for protecting the skin from heavy metals and formaldehyde” (FNG RESEARCH CO., LTD., priority 2016, dated 2021).

How the values were obtained:
[1] = Removal test of heavy metals of active ingredients (pig skin, ICP-MS): Cu; details: contaminated pig skin
[2] = Formaldehyde removing ability test (GC); details: 2.0% formaldehyde solution; for Area (mAU*min) 30 min: formaldehyde GC area after 30 min; for Area (mAU*min) 30 min / Area (mAU*min) 180 min: 3 molar equivalents, room temperature; for Area (mAU*min) 180 min: formaldehyde GC area after 180 min; for Area (mAU*min) Initial: formaldehyde GC area, initial state, 3 molar equivalents of compound
[3] = Removal test of heavy metals of active ingredients (pig skin, ICP-MS): Cd; details: contaminated pig skin
human skin = assay: Skin irritation test of active ingredient (patch method, CTFA guidelines); type: in vivo; parameters: key to Degree of irritation: 0–0.1 none, 0.11–0.3 weak, 0.31–0.5 moderate, ≥0.51 strong irritation; details: 20 people, patch 24 hours; for Test result(number of subject) (+): (+): Apparent reddening than periphery; for Test result(number of subject) (++): (++): More reddened and swollen than periphery; for Test result(number of subject) (±): (±): slightly reddish than the periphery; for Test result(number of subject) (−): (−): No erythema or particularly no symptoms
[4] = Removal test of heavy metals of active ingredients (pig skin, ICP-MS): Pb; details: contaminated pig skin

SMILES | Removal of Heavy metals Cu (%) ([1]; 0.1 wt % aqueous solution) | Removal of Heavy metals Cu (%) ([1]; 0.5 wt % aqueous solution) | Removal of Heavy metals Cu (%) ([1]; 1.0 wt % aqueous solution) | Area (mAU*min) 30 min [2] [mAU*min] | Area (mAU*min) 180 min [2] [mAU*min] | Area (mAU*min) Initial [2] [mAU*min] | Removal of Heavy metals Cd (%) ([3]; 0.1 wt % aqueous solution) | Removal of Heavy metals Cd (%) ([3]; 0.5 wt % aqueous solution) | Removal of Heavy metals Cd (%) ([3]; 1.0 wt % aqueous solution) | Degree of irritation (human skin; 0.1 wt %) | Grade (human skin; 0.1 wt %) | Test result(number of subject) (+) (human skin; 0.1 wt %) | Test result(number of subject) (++) (human skin; 0.1 wt %) | Test result(number of subject) (±) (human skin; 0.1 wt %) | Test result(number of subject) (−) (human skin; 0.1 wt %) | Degree of irritation (human skin; 0.5 wt %) | Grade (human skin; 0.5 wt %) | Test result(number of subject) (+) (human skin; 0.5 wt %) | Test result(number of subject) (++) (human skin; 0.5 wt %) | Test result(number of subject) (±) (human skin; 0.5 wt %) | also measured
O=C(O)c1ccc(N2CCCN(c3ccc(C(=O)O)o3)CCN(c3ccc(C(=O)O)o3)CCCN(c3ccc(C(=O)O)o3)CC2)o1 [Embodiment 12, 5,5′,5″,5′″-(1,4,8,11-tetraazacyclotetradecane-1,4,8,11-tetrayl)tetrakis(furan-2-carboxylic acid)] | 94.5 | 95.8 | 96.3 | 0.170 | 0 | 0.305 | 90.1 | 90.7 | 90.9 | 0 | I (Degree of irritation 0-0.1: Grade I (unstimulated)) | 0 | 0 | 0 | 20 | 0 | I (Degree of irritation 0-0.1: Grade I (unstimulated)) | 0 | 0 | 0 | Test result(number of subject) (−) (human skin; 0.5 wt %): 20; Degree of irritation (human skin; 1.0 wt %): 0.05; Grade (human skin; 1.0 wt %): I (Degree of irritation 0-0.1: Grade I (unstimulated)); Test result(number of subject) (+) (human skin; 1.0 wt %): 0; Test result(number of subject) (++) (human skin; 1.0 wt %): 0; Test result(number of subject) (±) (human skin; 1.0 wt %): 1; Test result(number of subject) (−) (human skin; 1.0 wt %): 19; Removal of Heavy metals Pb (%) ([4]; 0.1 wt % aqueous solution): 89.1%; Removal of Heavy metals Pb (%) ([4]; 0.5 wt % aqueous solution): 90.9%; Removal of Heavy metals Pb (%) ([4]; 1.0 wt % aqueous solution): 91.3%
NCCNCCNCCN [Trientine, Triethylenetetramine, reference compound] | 92.6 | 95.4 | 96.0 | 0.168 | 0 | 0.305 | 87.3 | 92.4 | 92.3 | 0 | I (Degree of irritation 0-0.1: Grade I (unstimulated)) | 0 | 0 | 0 | 20 | 0.05 | I (Degree of irritation 0-0.1: Grade I (unstimulated)) | 0 | 0 | 1 | Test result(number of subject) (−) (human skin; 0.5 wt %): 19; Degree of irritation (human skin; 1.0 wt %): 0.15; Grade (human skin; 1.0 wt %): II (Degree of irritation 0.11-0.3: Grade II (weakly stimulated)); Test result(number of subject) (+) (human skin; 1.0 wt %): 0; Test result(number of subject) (++) (human skin; 1.0 wt %): 0; Test result(number of subject) (±) (human skin; 1.0 wt %): 3; Test result(number of subject) (−) (human skin; 1.0 wt %): 17; Removal of Heavy metals Pb (%) ([4]; 0.1 wt % aqueous solution): 89.7%; Removal of Heavy metals Pb (%) ([4]; 0.5 wt % aqueous solution): 92.1%; Removal of Heavy metals Pb (%) ([4]; 1.0 wt % aqueous solution): 92.3%
